Earlier results in patent publication US20120289594A1, “ORAL DOSAGE FORM” (Orion Corporation, priority 2005, published 2012).

What was measured:
[1] = background statement
[2] = background statement; remark: listed apart in the source

Question: What does the source list for `CCN(CC)C(=O)/C(C#N)=C/c1cc(O)c(O)c([N+](=O)[O-])c1` [Entacapone, (E)-2-cyano-3-(3,4-dihydroxy-5-nitrophenyl)-N-diethyl-2 propenamide]?
Answer: water solubility [1]: very low; absorption in the gastrointestinal tract [2]: quickly absorbed
